Experiment: High Throughput Inhibition Assay: A high throughput assay was developed to screen for fascin specific inhibitors. Purified polymerized F-actin with or without fascin were mixed and incubated to allow actin bundle formation. F-actin polymers were then bound to the poly-D-lysine coated plates. After extensive washes, F-actin polymers were visualized by labeling them with Alexa Fluor 488 phalloidin. Four images were taken from each well and the average fiber length was analyzed for each tested compound.

O=C(Cn1cnc2c(cnn2C2CCS(=O)(O)(O)C2)c1=O)Nc1ccc(Cl)cc1 (stereo unspecified)
IC50: 4.3 µM

Reference: ChEMBL document CHEMBL5728313, “Methods for inhibiting fascin” (2021)
